Reference: PMC3169404, “Inhibitor-bound complexes of dihydrofolate reductase-thymidylate synthase from Babesia bovis” (Acta Crystallographica Section F: Structural Biology and …, 2011)
Each block holds one compound with its values, some of them ahead of it.

How the values were obtained:
BbDHFR-TS [1] = target: T1, BbDHFR-TS (Babesia bovis, UniProt A7ASX7); experiment: X-ray crystal structures (co-purified 3k2h; cocrystallisation 3nrr); assay type: binding; conditions: DHFR site; with pemetrexed (3k2h) or raltitrexed (3nrr); oxidation state not stated beyond NADP
T1 construct: gene BBOV_II000780; full length 1-511, N-terminal 6xHis-Smt tag removed by Ulp1 without remnant, expressed in E. coli BL21 (DE3); DHFR about 1-186, 40-residue linker, TS C-terminal 285 residues
T1 sequence (A7ASX7 1-511): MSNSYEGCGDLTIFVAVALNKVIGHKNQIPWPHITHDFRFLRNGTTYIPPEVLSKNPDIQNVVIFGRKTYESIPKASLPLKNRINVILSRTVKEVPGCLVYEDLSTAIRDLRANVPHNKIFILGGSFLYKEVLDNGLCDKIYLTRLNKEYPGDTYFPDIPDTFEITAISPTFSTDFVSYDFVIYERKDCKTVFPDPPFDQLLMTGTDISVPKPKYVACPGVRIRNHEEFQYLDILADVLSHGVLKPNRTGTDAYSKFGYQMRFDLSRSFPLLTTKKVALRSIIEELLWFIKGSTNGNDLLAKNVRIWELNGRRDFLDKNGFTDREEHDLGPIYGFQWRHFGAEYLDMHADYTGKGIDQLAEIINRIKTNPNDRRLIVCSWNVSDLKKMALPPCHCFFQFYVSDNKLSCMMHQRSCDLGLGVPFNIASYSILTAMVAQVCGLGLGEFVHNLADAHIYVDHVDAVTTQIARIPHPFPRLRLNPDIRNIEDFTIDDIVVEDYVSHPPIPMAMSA

BbDHFR-TS [2] = target: T1, BbDHFR-TS; experiment: X-ray crystal structures (soak 3k2h; cocrystallisation 3nrr); assay type: binding; conditions: TS active site; ternary complex with pemetrexed (3k2h) or raltitrexed (3nrr)
[3] = target: dihydrofolate reductase-thymidylate synthase from B. bovis (Babesia bovis (Texas T2Bo isolate)); experiment: crystal structure; three crystal structures of BbDHFR-TS (apo; with dUMP, NADP and pemetrexed; with dUMP, NADP and raltitrexed); space group P1, homodimer in the asymmetric unit; crystals grown at 289 K, data at 100 K
BbDHFR-TS [4] = target: T1, BbDHFR-TS; experiment: X-ray crystal structure, […] Å, cocrystallisation; assay type: binding; conditions: in both TS site (with dUMP) and DHFR site (with NADP); 5 mM raltitrexed, 2 mM dUMP, 2 mM NADP; 20 mM MgCl2, HEPES pH 7.5, 289 K
BbDHFR-TS [5] = target: T1, BbDHFR-TS; experiment: X-ray crystal structure, […] Å, soak; assay type: binding; conditions: in both TS site (with dUMP) and DHFR site (with NADP); 2 mM pemetrexed, 2.0 mM dUMP; PEG 8000, CHES pH 9.5, 289 K

Compound: NC(=O)c1ccc[n+]([C@@H]2O[C@H](COP(=O)(O)OP(=O)(O)OC[C@H]3O[C@@H](n4cnc5c(N)ncnc54)[C@H](OP(=O)(O)O)[C@@H]3O)[C@@H](O)[C@H]2O)c1 [NADP]
X-ray crystal structures (co-purified 3k2h; cocrystallisation 3nrr) (BbDHFR-TS [1]): pemetrexed and NADP bound in the DHFR subunit

Compound: O=c1ccn([C@H]2C[C@H](O)[C@@H](COP(=O)(O)O)O2)c(=O)[nH]1 [dUMP]
X-ray crystal structures (soak 3k2h; cocrystallisation 3nrr) (BbDHFR-TS [2]): contains the antifolate pemetrexed and dUMP bound in the TS subunit

stoichiometry N [3]: 2
Compound: dihydrofolate reductase-thymidylate synthase from B. bovis (enzyme)

Compound: Cc1nc2ccc(CN(C)c3ccc(C(=O)N[C@@H](CCC(=O)O)C(=O)O)s3)cc2c(=O)[nH]1 [RTX, raltitrexed]
X-ray crystal structure, 1.8 Å, cocrystallisation (BbDHFR-TS [4]): raltirexed rather than pemetrexed in both folate sites, as well as dUMP and NADP

Compound: Nc1nc(=O)c2c(CCc3ccc(C(=O)N[C@@H](CCC(=O)O)C(=O)O)cc3)c[nH]c2[nH]1 [PTX, pemetrexed]
X-ray crystal structure, 2.2 Å, soak (BbDHFR-TS [5]): contains the antifolate pemetrexed and dUMP bound in the TS subunit and pemetrexed and NADP
